Source: patent publication US6887867B2, “5H-2,3-benzodiazepine antagonists of excitatory amino acid receptors” (Transgenomic, Inc., priority 2000, dated 2005)
Like-named read-outs stand apart in the source and are kept apart here.

Assays:
[1] = system: focal ischemia; details: rat MCAO, cited from earlier work
[2] = system: global ischemia; details: rat common carotid arteries model; cited from earlier work
[3] = system: AMPA receptor; assay: Inhibition of Ca2+ influx into cortical cells stimulated with AMPA; type: cell-based; details: cortical cells stimulated with 50 μM AMPA; fluorescence readout
Procedure: Three of the antagonists disclosed herein were tested, in vitro, for inhibition of Ca^2+ influx into cortical cells stimulated with AMPA. They are 1-(4-Aminophenyl)-3,5-dihydro-4-methyl-3-acetyl-7-methoxy-5H-2,3-benzodiazepine (8) (SYM 2267), 1-(4-Aminophenyl)-3,5-dihydro-4-methyl-3-acetyl-8-methoxy-5H-2,3-benzodiazepine (21) (SYM 2268), and 1-(4-Aminophenyl)-3,5-dihydro-4-methyl-3-acetyl-7-amino-8-methoxy-5H-2,3-benzodiazepine (27) (SYM 2269), respectively. The in vitro test measures inhibition of Ca^2+ influx into cortical cells stimulated with 50 µM AMPA by the test compounds. The rationale underlying this assay is that stimulation of the cortical cells with AMPA activates AMPA receptors causing Ca^2+ influx with an increase in intracellular Ca^2+ which is then detected by measuring an increase in fluorescence. The Ca^2+ increase comes mostly from extracellular (influx of Ca^2+ through the channel into the cell), but could also come from intracellular sources (release of Ca^2+ from storage). The inhibition of the AMPA receptor function is detected by a decrease in the level of intracellular Ca^2+ and a decrease in fluorescence.

[4] = system: MES seizures; assay: Maximal electro shock (MES) seizure model; type: in vivo; details: rats
Procedure: The extent of protection by a test compound in a seizure model is tested as described by Rogawski et al. (Epilepsy Research, 15:179-184, 1993). Male NIH Swiss mice (25-30 g) are injected ip with the test drug. The mice are subjected to a 0.2 sec, 60 Hz, 50 mA electrical stimulus delivered with corneal electrodes wetted with 0.9% saline at 15-30 min post dosing. Animals failing to show tonic hind limb extension are scored as protected. Compounds may be selected which are active in this model.
SYM 2267 was evaluated for in vivo anticonvulsant activity in the maximal electro shock (MES) model in rats.

[5] = Rotorod test; type: in vivo; details: rats, PO

Compound: CC1=NN=C(c2ccc(N)cc2)c2cc3c(cc2C1)OCO3 [GYKI 52466]
- Reduction of cortical infarct volume ([1]; dosing delayed for one hour): 48%
- Reduction of cortical infarct volume ([1]; given continuously for 2 hours just after occlusion): 68%
- Efficacy in global ischemia compared with NBQX [2]: as effective as the glutamate site competitive antagonist NBQX

Compound: COc1ccc2c(c1)CC(C)N(C(C)=O)N=C2c1ccc(N)cc1 (stereo not drawn) [SYM 2267, 1-(4-Aminophenyl)-3,5-dihydro-4-methyl-3-acetyl-7-methoxy-5H-2,3-benzodiazepine]
- IC50 [3]: 26.1 µM
- ED50 ([4]; Rattus norvegicus, MES model, read-out: MES effective dosage (ED50)): 8.4 mg/kg
- Protection from MES seizures ([4]; orally (PO), 30 mg/kg): fully protected
- Sedative or toxic side effects in the rotorod test [5]: No sedative or toxic side effects were observed

Compound: COc1ccc2c(c1)C(c1ccc(N)cc1)=NN(C(C)=O)C(C)C2 (stereo not drawn) [SYM 2268, 1-(4-Aminophenyl)-3,5-dihydro-4-methyl-3-acetyl-8-methoxy-5H-2,3-benzodiazepine]
- IC50 [3]: 16.6 µM

Compound: COc1cc2c(cc1N)CC(C)N(C(C)=O)N=C2c1ccc(N)cc1 (stereo not drawn) [SYM 2269, 1-(4-Aminophenyl)-3,5-dihydro-4-methyl-3-acetyl-7-amino-8-methoxy-5H-2,3-benzodiazepine]
- IC50 [3]: 7.3 µM
